# According to patent publication US20060142326A1, “Use of pyrazolopyridines for the treatment of cognitive deficits” (priority 2003, published 2006):
# Experiments:
# [1] = system: granular cells of the cerebellum; assay: Toxicity induced by NMDA/serine on granular cells of the cerebellum, MTT test; format: cell-based, Wistar rat; conditions: 100 μM NMDA + 10 μM D-serine, six hours
# Experimental: (§1) Seven day old Wistar rats are decapitated and their cerebella are dissected. After having removed the meninges, the tissue is cut into small pieces and trypsinised for 15 minutes at 37° C. The cells are disassociated by trituration and placed in cultures at a density of 300,000 cells per cm^2 in Eagle's base medium supplemented with 10% foetal calf serum and 2 mM glutamine. The following day 10 μM ARA-C, an antimitotic, is added so as to prevent proliferation of the glial cells. The cells are treated for 9 days after placing in culture with the etazolate inhibiting compound, before adding toxics, 50 μM kainate or 100 μM N-methyl-D-aspartate in the presence of 10 μM D-serine. 8-bromo-cAMP is added just before the toxics. All of the treatments are carried out at least in duplicate and in at least two different cultures. Following an incubation of six hours, the toxicity is measured by an MTT test. The results, standardised to the untreated average, are statistically analysed by the Wilcoxon test. The significant value is established at p less than or equal to 0.05. Toxicity is measured using the MTT test. Following incubation with the compounds, MTT is added at a final concentration of 0.5 mg/ml per well. The plaques are then incubated for 30 minutes at 37° C. in the dark. […] The absorbance at 550 nm is read and the viability percentage is calculated.
# [2] = system: granular cells of the cerebellum; assay: Toxicity induced by kainate on granular cells of the cerebellum, MTT test; format: cell-based, Wistar rat; conditions: 50 μM kainate, six hours
# Experimental: as §1
# cortical neurons [3] = assay: Toxicity induced by NMDA/serine on cortical neurons, MTT test; format: cell-based, Wistar rat; conditions: 20 μM NMDA + 10 μM D-serine, six hours
# Experimental: (§2) 16 day old Wistar rat embryos are taken and the cortexes dissected. Following trypsination at 37° C. for 25 minutes, the cells are dissociated by trituration. The cells are sown in minimum essential medium, supplemented with 10% horse serum and 10% foetal calf serum and 2 mM glutamine, at a density of 300,000 cells per cm^2. After 4 days in culture half of the medium is changed with minimum essential medium supplemented with 5% horse serum and 2 mM glutamine. […] After seven and eleven days of culture, half of the medium is changed with conditioned medium. The conditioned medium is made up from MEM containing 5% horse serum and 2 mM glutamine; this medium is passed over a carpet of cortical astrocytes for a night before being used. On day 14, the cells are treated with the etazolate inhibitor compound, before adding toxics, 50 μM kainate or 20 μM N-methyl-D-aspartate in the presence of 10 μM D-serine. All of the treatments are carried out at least in duplicate and in at least two different cultures. Following an incubation of six hours the toxicity is measured by an MTT test. The results, standardised to the untreated average, are statistically analysed by the Wilcoxon test. The significant value is established at ρ less than or equal to 0.05. Toxicity is measured using the MTT test. […] The absorbance at 550 nm is read and the viability percentage is calculated.
# cortical neurons [4] = assay: Toxicity induced by kainate on cortical neurons, MTT test; format: cell-based, Wistar rat; conditions: 50 μM kainate, six hours
# Experimental: as §2
# [5] = system: ventral spinal cord cells; assay: Toxicity induced by NMDA/serine on ventral spinal cord cells, MTT test; format: cell-based, Wistar rat; conditions: 25 μM NMDA + 10 μM D-serine, 3 hours
# Experimental: The cells are isolated from 14 day old Wistar rat embryos. Upon their arrival, the pregnant female rats are sacrificed by means of carbon dioxide. The series of embryos is taken and placed in a box containing PBS. The spinal cord of each embryo is dissected and the ventral cord is separated from the dorsal cords. The ventral cords are then trypsinised at 37° C. for 20 mins. The effect of the trypsin is halted by the addition of a medium made up from Leibovitz 15 medium, 20% horse serum, N2 (1×) supplement, 20% glucose (3.2 mg/ml), 7.5% bicarbonate (1.8 mg/ml) and L-glutamine (2 mM). The cells are dissociated by trituration. The accumulated tissue is removed and the dissociated cells are then quantified by dying with trypan blue. The cells sown at a density of 250 000 cells/cm^2 in a medium made up from neurobasal medium, horse serum (2%), B27 (1×) supplement, and glutamine (2 mM). After 3 days of in vitro culture, an anti-mitotic agent, ARA-C (5 μM), is added to the cells so as to inhibit production of glial cells. The cells are placed in culture at 37° C. in a humidified incubator (5% CO2) for 9 days. […] The results are standardised to the average of the untreated controls and analysed statistically by means of a Wilcoxon test with ρ less than 0.05. Toxicity is measured using the MTT test. […] The absorbance at 550 nm is read and the viability percentage is calculated.
# SH-SY5Y cells = assay: Toxicity induced by 6-hydroxydopamine (oxidative stress) on SH-SY5Y cells, MTT test; format: cell-based, human; conditions: 6-OHDA treatment
# Experimental: In this example, cells from the SH-SY5Y line were placed in culture according to the techniques known to experts in the field. These cells, derived from a human neuroblast, have properties which characterise a neuronal precursor at a premature stage of development. The toxic used is 6-hydroxydopamine (6-OHDA) which induces oxidative stress. Toxicity is measured by an MTT test.
# [6] = system: cerebral infarction in rats; assay: Model of cerebral infarction in rats (occlusion of the internal carotide and medium arteries of the brain); format: in vivo; conditions: rat
# Experimental: The in vivo protective effect of etazolate was evaluated in a model of cerebral infarction in rats. During this study, a cerebral infarction was brought about by an intracavity occlusion of the internal carotide and the medium arteries of the brain. A group of eight rats was treated with etazolate (10 mg/kg, p.o.) before and several times after occlusion. A group of eight rats was treated with the reference compound, L-NAME (1 mg/kg, i.p.) before and several times after occlusion. A group of eight rats was only treated with the vehicle. The effects were evaluated by clinical observations, neurological function tests and by establishing the size of the infarction at the end of the study.
# old rats = assay: Aquatic labyrinth test (Morris pool) in old rats; format: in vivo, rat
# Source text: This test is used to evaluate the capacities to memorise and to manage spatial information in rats in an aversive situation. The task consists for the animal of locating with the help of distance indices a <<refuge >> platform, invisible by immersion in a tank filled with opacified water. The device makes it possible to evaluate the reference memory of the animal (the platform remains in the same place on each day of the test). This test makes it possible to appreciate the […] performances dependent upon the functions of the hippocampus of the animals tested. In particular, this test makes it possible to discriminate between the performances of adult rats (10 months) and those of old rats (30 months). The hippocampus is a cerebral structure the functions of which are altered prematurely in Alzheimer's disease. The Morris pool test is therefore particularly recognised by experts in the field as making it possible to appreciate the pharmacological properties of compounds intended to treat Alzheimer's disease and other diseases associated with a cognitive deficit. Old rats treated with etazolate (3 mg/kg and 10 mg/kg) administered orally and rats treated by the vehicle were used for this study. The performances of these animals in the Morris pool test were compared to those of a control group of adult rats.
# [7] = Single increasing oral dose study in healthy volunteers (tolerance, plasmatic dosage); format: in vivo, human
# Experimental: In this study, single, increasing doses of etazolate (0.5, 1, 2, 5, 10 and 20 mg) were administered orally in the form of capsules dosed at 0.5 and 5 mg to different and sequential groups of eight young, healthy, volunteer subjects of the male sex. This study was carried out in just one centre, double-blind, and two of the eight subjects were given a placebo. The parameters evaluated were clinical (appearance of adverse effects, of clinical signs, change in arterial pressure or heart rate), electrocardiographic (ECG recording) and biological tolerance (hematology and sanguineous biochemistry, urinary examination) for the 24 hrs following administration of the product. A plasmatic dosage of the product was carried out in each subject at different times before and after administration of the product (0.25-0.50-1.00-1.50-2.00-3.00-4.00-5.00-6.00-8.00-10.00-12.00 and 24.00 hours). A urinary dosage of the product was also carried out from urines collected before and after administration of the product (4, 4-8, 8-12 and 12-24 hours).
smiles,measurement,setting,value
CCOC(=O)c1cnc2c(cnn2CC)c1NN=C(C)C [etazolate],protective effect,[1],40%
same,protective effect,[2],50%
same,protective effect,cortical neurons [3],47%
same,protective effect,cortical neurons [4],40%
same,protective effect,[5],36%
same,protective effect,SH-SY5Y cells,40%
same,neurological evaluation relative to the control group,[6]; 10 mg/kg p.o.,improvement
same,reduction of the size of the infarction relative to the control,"[6]; 10 mg/kg p.o. before and several times after occlusion, average",28%
same,hypoactivity,"[6]; 10 mg/kg p.o., control group 42%",31%
same,performances in the Morris pool test,old rats; 3 mg/kg orally,slightly improves the performances of old rats
same,performances in the Morris pool test,"old rats; 10 mg/kg orally, compared to adult rats",importantly brings the performances of old animals closer to those of adult animals
same,secondary effects,"[7]; healthy male volunteers, single oral doses 0.5-20 mg",did not involve any secondary effects
same,"tolerance (clinical, electrocardiographic, biological)","[7]; healthy male volunteers, single oral doses 0.5-20 mg, 24 hrs",well tolerated
same,absorption (plasmatic dosages),"[7]; humans, oral capsules, at strong doses",good absorption
